Measurements reported in patent publication US12053452B2 (priority 2021, dated 2024).

Legend:
C57 mice [1] = assay: Social preference procedure: compartment entries (proxy for locomotor stimulant effects), C57; format: in vivo
Protocol: (§1) This assay was conducted in adult male C57 and BTBR mice (n=6 per group) in a dedicated conditioning room where ambient light, sound, and human contact were tightly controlled. Social preference chambers consist of two polycarbonate boxes (13.5 cm wide×22.5 cm tall×31.0 cm deep), floored with rough-textured black ABS plastic, and connected to one another by a 1.25″ PVC T-junction. An infrared photobeam emitter/detector array is mounted at each intersection of the T-junction and each preference compartment, and as a mouse traversed the apparatus, it would break the photobeam upon entry to or exit from each preference compartment. Beam breaks started or stopped a counter on an interfaced computer, allowing automated collection of time spent in each compartment. At the end of each test, data were reported as time (in seconds) spent in each compartment, the number of entries into each compartment, and the average time spent in each compartment following an entry. Social preference tests were conducted in an iterative manner, with each test subject completing four distinct phases as described below. Between testing sessions, chambers were sanitized by wiping the insides with a disinfectant product provided by the UAMS Department of Laboratory Animal Medicine. At the end of the week (upon completion of all phases of the procedure), each apparatus was disassembled and all parts were sanitized. No food or water were available during social preference sessions, but were available in the home cage immediately afterwards.
(§2) Quantification of total entries into the preference compartments provided a proxy measurement for locomotor stimulant effects of the various doses of the various test drugs. This established a limit to the drug doses that can be tested in the social preference procedure, as induction of locomotor stimulant effects confounds preference assessments (because mice stop attending to the social stimuli in each compartment and instead spend their time engaged in locomotor behavior.) Motor activity varied across the distinct phases of social preference testing, in part because the habituation session is twice as long (30 minutes) as the novelty, sociability, and social novelty tests (15 minutes each), but also because mice emitted high levels of exploratory behavior in novel environments. Thus, as familiarity with the test apparatus increased over successive exposures to the chambers, the number of entries decreased.
(§3) (Note that entries were collected for every test, but drug effects on entries during earlier phases may be less reliable due to the confounding influence of changing familiarity with the apparatus across phases.)

BTBR mice [2] = assay: Social novelty preference test, BTBR (autism spectrum disorder model); format: in vivo; details: BTBR mice
Protocol: as §1
A single social novelty preference session occurred the day after the sociability test, where one compartment contained a wire mesh cup with the same NIH Swiss mouse from the previous day inside (referred to now as the “familiar” mouse) while the other compartment contained a new male NIH Swiss stranger mouse inside the cup which previously contained the dummy mouse during the sociability test. […]

C57 mice [3] = assay: Radiotelemetry of core temperature, C57; format: in vivo
Protocol: The radiotelemetry assay was conducted in adult male C57 and BTBR mice (n=6 per group) in a dedicated testing room where ambient light, sound, and human contact were tightly controlled.
Prior to surgical implantation of radiotelemetry probes, mice received 3 mg/kg meloxicam (IP), and anesthesia was induced with 4% inhaled isoflurane and maintained with 1-3% isoflurane (as needed) throughout the procedure at a flow rate of 1.5 litres/minute. The abdominal area of each animal was treated with depilatory cream, then sanitized with 3 alternating scrubs with iodine and alcohol. A rostral-caudal cut approximately 1.5 cm in length was made with sterile skin scissors, providing access to the intraperitoneal cavity. A cylindrical glass-encapsulated radiotelemetry probe (model ER-4000 E-Mitter, Mini Mitter, Bend, OR, USA) was then inserted. These probes measure 15.5 mm×6.5 mm and weigh approximately 1 gram. Incisions were closed (skin layer and muscle layer separately) using reverse cutting 5-0 Vicryl absorbable sutures for the muscle layer and 5-0 nylon suture material for the skin layer. Surgeries were carried out at least 7 days before initiation of experimental conditions, allowing time for incisions to heal and for animals to recover normal body weights. Following surgery, all implanted mice were individually housed in Plexiglas cages within the telemetry room for the duration of all experiments. Implanted transmitters produce activity- and temperature-modulated signals which are sent to a receiver (model ER-4000 Receiver, Mini Mitter Co., Inc.) underneath each cage. Following use, telemetry probes were removed from carcasses, wiped with alcohol swabs, and stored in the disinfectant solution until re-use.
At least 7 days after surgical implantation of radiotelemetry probes, mice in their individual home cages were placed atop a telemetry energizer/receiver, which powered probes and transmitted their data to an interfaced computer. Upon initiation of an experimental session, the computer collected two data updates from the probes at 5 min intervals: core temperature (in ° C.) on one channel, and locomotor counts (in arbitrary units, depending on the relative position of the probe atop the receiver) on the other. After at least 60 minutes of baseline data collection, mice were removed from their cages, injected with saline or a given dose of a specific drug, then returned to the home cage 24 hours of data collection.
Food and water were always freely available in the home cage. Mice were injected with ascending doses of a given drug, with at least 48 hours separating doses. Because there are few studies of drug effects in BTBR mice, the first drug dose tested occasionally elicited unexpectedly large locomotor effects in these animals. In these cases, smaller drug doses were tested next, after a washout period of at least one full day.

BTBR mice [4] = assay: Novelty preference test, BTBR; format: in vivo; details: all tested doses IP
Protocol: as §1, with “At the end of the week (upon completion of all phases of the procedure), each apparatus was disassembled and all parts were sanitized. No food or water were available during social preference sessions, but were available in the home cage immediately afterwards.” left out

[5] = human urine, after racemic MDMA; cited from earlier work
BTBR mice [6] = assay: Social preference procedure: compartment entries (proxy for locomotor stimulant effects), BTBR; format: in vivo
Protocol: as §1, §2, §3

[7] = autistic adults, MDMA-assisted psychotherapy; cited from earlier work
[8] = 3.0 mg/kg IP, social novelty test

Structure (SMILES) | compartment entries (locomotor stimulant effect) (C57 mice [1]; [8]) | compartment entries (locomotor stimulant effect) (C57 mice [1]; various doses IP) | social novelty preference (new stranger mouse vs familiar mouse) (BTBR mice [2]; all doses IP) | effect on core temperature (C57 mice [3]; 10 mg/kg IP) | rise in core temperature (C57 mice [3]; 56 mg/kg IP) [degrees C.] | effect on core temperature (C57 mice [3]; various/increasing doses IP) | novelty preference (time spent with the dummy mouse) (BTBR mice [4]) | enantiomer with higher Cmax [5] | compartment entries (locomotor stimulant effect) (BTBR mice [6]; [8]) | compartment entries (locomotor stimulant effect) (BTBR mice [6]; 5.6 mg/kg IP, social novelty test) [entries] | compartment entries (locomotor stimulant effect) (BTBR mice [6]; all tested doses IP) | social anxiety symptoms [7] | social novelty preference (new stranger mouse vs familiar mouse) (BTBR mice [2]; 3.0 mg/kg IP) | jump in core temperature (C57 mice [3]; 18 mg/kg i.p) | effect on core temperature (C57 mice [3]; 30 mg/kg IP) | lethality during core temperature recording (C57 mice [3]; approximately 5-8 hrs after injection) | compartment entries (locomotor stimulant effect) (BTBR mice [6]; 3.0 mg/kg IP, social novelty test, 3 mg/kg) | compartment entries (locomotor stimulant effect) (BTBR mice [6]; 3.0 mg/kg IP, social novelty test, listed as S-MDMA, 3 mg/kg)
CNC(C)Cc1ccc2c(c1)OCO2 (racemic) [racemic MDMA, 1-(1,3-benzodioxol-5-yl)-N-methylpropan-2-amine] | had no effects on locomotor activity | dose-response stimulant effect | exhibiting preferences for the stranger mouse | induced a drop in core temperature | ~2 | gradual increase in core temperature | No dose of racemic MDMA (e.g comparative composition 1) or S(+)-MDMA (e.g comparative composition 3) elicited any effects on novelty preference | Higher R-enantiomer Cmax | increased the number of entries | ~100 | dose-response stimulant effect | rapid and durable improvement in social anxiety symptoms |  |  |  |  |  | 
CN[C@@H](C)Cc1ccc2c(c1)OCO2 [S(+)-MDMA, (2S)-1-(1,3-benzodioxol-5-yl)-N-methylpropan-2-amine] |  | dose-response stimulant effect |  | elicited an increase in temperature |  | dose-dependent increase in temperature | No dose of racemic MDMA (e.g comparative composition 1) or S(+)-MDMA (e.g comparative composition 3) elicited any effects on novelty preference |  |  |  | dose-response stimulant effect |  | elicited a strong preference for the stranger mouse | greater than that observed by administration of 56 mg/kg i.p of Racemic MDMA | elicits significant hyperthermia | one animal experiencing profound hypothermia before expiring | roughly equivalent entries to 3.0 mg/kg racemic MDMA | increased the number of entries
